Experimental data from ChEMBL document CHEMBL1201862, “PubChem BioAssay data set” (2004).
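Step 1: Grow cells in 96-well plates. Step 2: Expose to compound for 48 hours at 5 concentrations. Step 3: Interpolate endpoints linearly; if unreached, use highest concentration. GI50: concentration for 50% inhibition of growth.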 Activity calls are given as the source filed them. No stated cut-off is given here; in the data, active = GI50 up to about 1.1 µM and inactive = higher.

Tests used:
Experiment in all cases: NCI anticancer screen, dose series, 48 h
786-0 = test system: 786-0
CCRF-CEM = test system: CCRF-CEM
DU-145 = test system: DU-145
EKVX = test system: EKVX
HCT-15 = test system: HCT-15
HL-60 = test system: HL-60
IGROV-1 = test system: IGROV-1
MCF7 = test system: MCF7
MDA-MB-231 = test system: MDA-MB-231
Malme-3M = test system: Malme-3M
NCI-H23 = test system: NCI-H23
NCI-H460 = test system: NCI-H460
SF-295 = test system: SF-295
SK-MEL-2 = test system: SK-MEL-2
SK-MEL-5 = test system: SK-MEL-5
SK-OV-3 = test system: SK-OV-3
SN12C = test system: SN12C
SW-620 = test system: SW-620
T47D = test system: T47D
SNB-75 = test system: SNB-75

Row | Compound | GI50 (786-0) | GI50 (CCRF-CEM) | GI50 (DU-145) | GI50 (EKVX) | GI50 (HCT-15) | GI50 (HL-60) | GI50 (IGROV-1) | GI50 (MCF7) | GI50 (MDA-MB-231) | GI50 (Malme-3M) | GI50 (NCI-H23) | GI50 (NCI-H460) | GI50 (SF-295) | GI50 (SK-MEL-2) | GI50 (SK-MEL-5) | GI50 (SK-OV-3) | GI50 (SN12C) | GI50 (SW-620) | GI50 (T47D) | GI50 (SNB-75)
1 | COC(=O)c1cc(NC(=O)Cn2c3ccccc3c3ccccc32)cn1C | 29.7 µM (inactive) | 39.3 µM (inactive) | > 100 µM (inactive) | 34 µM (inactive) | 92.7 µM | > 100 µM (inactive) | 24.3 µM (inactive) | 59 µM (inactive) | 20.1 µM (inactive) | 30.2 µM (inactive) | 39.3 µM (inactive) | 57.5 µM (inactive) | 26.9 µM (inactive) | 47.9 µM (inactive) | 65.8 µM (inactive) | 25.6 µM (inactive) | 55.3 µM (inactive) | > 100 µM (inactive) | > 100 µM (inactive) | 
2 | CCC(C#N)NCc1ccc(CNC(C#N)CC)cc1 (configuration not stated) | > 100 µM (inactive) | > 100 µM (inactive) | > 100 µM (inactive) | > 100 µM (inactive) | > 100 µM | > 100 µM (inactive) | > 100 µM (inactive) | > 100 µM (inactive) | > 100 µM (inactive) | > 100 µM (inactive) | > 100 µM (inactive) | > 100 µM (inactive) | > 100 µM (inactive) | > 100 µM (inactive) | > 100 µM (inactive) | > 100 µM (inactive) | > 100 µM (inactive) | > 100 µM (inactive) | > 100 µM (inactive) | 
3 | C=C1C(=O)O[C@H]2C/C(C)=C/CC[C@]3(C)CCC[C@](C)(CC[C@@H]12)O3 | 5.77 µM (inactive) | 0.828 µM (active) | 15.2 µM (inactive) | 9.04 µM (inactive) | 10.8 µM |  | 6.59 µM (inactive) | 13 µM (inactive) | 13.3 µM (inactive) |  | 11.3 µM (inactive) | 6.79 µM (inactive) | 21.9 µM (inactive) | 8.51 µM (inactive) | 6.44 µM (inactive) | 22.2 µM (inactive) | 12.7 µM (inactive) | 7.71 µM (inactive) | 9.71 µM (inactive) | 11.9 µM (inactive)
4 | c1ccc2c(c1)SC1=Nc3sc4ccccc4[n+]3CN12 | 25.9 µM (inactive) | 16.6 µM (inactive) | 27.8 µM (inactive) | 2.15 µM (inactive) | 40.2 µM | 32.1 µM (inactive) | 11.8 µM (inactive) | 16.4 µM (inactive) | 18.3 µM (inactive) | 10.5 µM (inactive) | 6.01 µM (inactive) | 15.3 µM (inactive) | 29.4 µM (inactive) | 11.4 µM (inactive) | 2.52 µM (inactive) | 17.2 µM (inactive) | 20.8 µM (inactive) | 10.4 µM (inactive) | 18.5 µM (inactive) | 
5 | c1cc2cc(c1)CN1CCNCCN(CCNCC1)Cc1cccc(c1)CN1CCNCCN(CCNCC1)C2 | > 100 µM (inactive) |  | > 100 µM (inactive) | > 100 µM (inactive) | > 100 µM |  | > 100 µM (inactive) | > 100 µM (inactive) | > 100 µM (inactive) | > 100 µM (inactive) | > 100 µM (inactive) | > 100 µM (inactive) | > 100 µM (inactive) | > 100 µM (inactive) | > 100 µM (inactive) | > 100 µM (inactive) | > 100 µM (inactive) | > 100 µM (inactive) | > 100 µM (inactive) | > 100 µM (inactive)
6 | COc1cc2nc(Cl)nc(NS(=O)(=O)c3cc4ccccc4s3)c2cc1OC | 35.4 µM (inactive) | 12.1 µM (inactive) | 21.3 µM (inactive) | 25 µM (inactive) | 36.3 µM |  | 27 µM (inactive) | 31.6 µM (inactive) | 24.9 µM (inactive) | 32 µM (inactive) | 25.7 µM (inactive) | 32.5 µM (inactive) | 33.8 µM (inactive) | 24.5 µM (inactive) | 19.1 µM (inactive) | 28.1 µM (inactive) | 29.6 µM (inactive) | 17.1 µM (inactive) | 19.7 µM (inactive) | 23.1 µM (inactive)
